From patent US20060058268A1, “Compounds and methods for treating diabetic vascular diseases” (priority 2004, published 2006)
pIC50: −log10 of the molar value. Where a name gives a salt, the structure may show the parent alone.

These compounds were tested on VCAM-1 (assay: VCAM-1 assay with ELISA readout (Examples 5-6)). Details: 16 h, TNF added with compound, incubated overnight (approximately 16 hours).
Assay type: cell-based
Experimental: Two to four confluent P150 plates are trypsinized and the cells transferred to a 50 mL conical centrifuge tube. The cells are pelleted, resuspended, and counted using the trypan blue exclusion method.
Cells are resuspended at a concentration of 36,000 cells/mL and 1 mL is aliquoted per well.
Cells are split into 24 well tissue culture plates. The cells in each well should be approximately 90-95% confluent by the following day. Cells should not be older than passage 8.
Compounds are initially screened at 50 μM and 10 μM. A 50 mM stock solution for each compound is prepared in culture medium. The stock solution is diluted to 5 mM and 1 mM. When 10 μL of the 5 mM solution is added to the well (1 mL medium/well), the final concentration will be 50 μM. Adding 10 μL of the 1 mM solution to the well will give a final concentration of 10 μM.
Compounds which will not go into solution in culture medium are resuspended in DMSO at a concentration of 25 mM. The stock solution is then diluted to the final concentration in culture medium. The old medium is aspirated and 1 mL of the new medium with the compound is added. For example, if the final concentration is 50 µM, the 2 μL of the 25 mM stock is added per mL of culture medium. The […] solution is diluted for lower concentrations.
The compounds are added to the plate (each compound is done in duplicate). One plate is done for VCAM expression and one plate is done for ICAM expression.
Immediately after the compounds are added, TNF is added to each well. 100 units/mL TNF is usually added to each well. Since each lot of TNF varies in the number of units, each new lot is titrated to determine the optimum concentration. Therefore this concentration will change. If 100 units/mL is being used, dilute the TNF to 10 units/μL and add 10 μL to each well.
The plates are incubated at 37° C., 5% CO2 overnight (approximately 16 hours). The next day the plates are checked under the microscope to see if there are any visual signs of toxicity. Records are made of any cell death, debris, or morphology changes, as well as insoluble compounds (particulate or turbity).
In order to assess MCP-1, the media (500 μL) is saved and frozen at −70° C. Wash cells once with roughly 1 ml/well of Hanks Balance Salt Solution (HBSS) or PBS. Gently empty the wash solution and then tap the plate onto paper towels. Add either 250 μL/well of HBSS+5% FCCS to the plank (no primary antibody wells) or 250 μL/well of primary antibody diluted in HBSS+5% FCS. Incubate for 30 minutes at 37° C. Wash the wells twice with 0.5 mL/well HBSS or PBS and gently tap the plates onto paper towels after the last wash. Add 250 μL/well of HRP-conjugated second antibody diluted in HBSS+5% FCS to every well including the blank wells (no primary antibody). Incubate at 37° C. for 30 minutes. Wash the wells four times with 0.5 mL/well HBSS or PBS and gently tap the plates onto paper towels after the last wash. Add 250 μL/well of substrate solution. Incubate at room temperature in the dark until there is adequate color development (blue). Note the length of time incubation was performed (typically 15-30 minutes). Add 75 μL/well stopper solution (8N sulfuric acid), and read at 450 nm.

Row | pIC50 | Compound
1 | 4.52 | CC(C)(Sc1cc(C(C)(C)C)c(O)c(C(C)(C)C)c1)Sc1cc(C(C)(C)C)c(OCC(O)CO)c(C(C)(C)C)c1 (centres unmarked) [1,2-Propanediol, 3-[4-[[1-[[3,5-bis(1,1-dimethylethyl)-4-hydroxyphenyl]thio]-1-methylethyl]thio]-2,6-bis(1,1-dimethylethyl)phenoxy]-]
2 | 3.96 | CC(C)(CO)CC(=O)Oc1c(C(C)(C)C)cc(SC(C)(C)Sc2cc(C(C)(C)C)c(O)c(C(C)(C)C)c2)cc1C(C)(C)C [Butanoic acid, 4-hydroxy-3,3-dimethyl-, 4-[[1-[[3,5-bis(1,1-dimethylethyl)-4-hydroxyphenyl]thio]-1-methylethyl]thio]-2,6-bis(1,1-dimethylethyl)phenyl ester]
3 | 4.82 | CC(C)(Sc1cc(C(C)(C)C)c(O)c(C(C)(C)C)c1)Sc1cc(C(C)(C)C)c(OC[C@@H](O)[C@@H](O)[C@H](O)[C@@H](O)CO)c(C(C)(C)C)c1 [D-Glucitol, 6-O-[4-[[1-[[3,5-bis(1,1-dimethylethyl)-4-hydroxyphenyl]thio]-1-methylethyl]thio]-2,6-bis(1,1-dimethylethyl)phenyl]-]
4 | 4.26 | CN(C)c1ccc(CCOc2c(C(C)(C)C)cc(SC(C)(C)Sc3cc(C(C)(C)C)c(O)c(C(C)(C)C)c3)cc2C(C)(C)C)cc1 [Phenol, 4-[[1-[[4-[2-[4-(dimethylamino)phenyl]ethoxy]-3,5-bis(1,1-dimethylethyl)phenyl]thio]-1-methylethyl]thio]-2,6-bis(1,1-dimethylethyl)-]

Row | Compound | pIC50
5 | CC(C)(Sc1cc(C(C)(C)C)c(O)c(C(C)(C)C)c1)Sc1cc(C(C)(C)C)c(OCCCCN)c(C(C)(C)C)c1 [Phenol, 4-[[1-[[4-(4-aminobutoxy)-3,5-bis(1,1-dimethylethyl)phenyl]thio]-1-methylethyl]thio]2,6-bis(1,1-dimethylethyl)-] | 5.10

Same assay, conditions: TNF added with compound, incubated overnight (approximately 16 hours)

Row | Compound | pIC50
6 | CC(C)(Sc1cc(C(C)(C)C)c(O)c(C(C)(C)C)c1)Sc1cc(C(C)(C)C)c(OC(=O)CCC(=O)O)c(C(C)(C)C)c1 [Butanedioic acid, mono [4-[[1-[[3,5-bis(1,1-dimethylethyl)-4-hydroxyphenyl]thio]-1-methylethyl]thio]2,6-bis(1,1-dimethylethyl)phenyl] ester] | 5.25
7 | CC(C)(Sc1cc(C(C)(C)C)c(OC(=O)CN)c(C(C)(C)C)c1)Sc1cc(C(C)(C)C)c(OC(=O)CN)c(C(C)(C)C)c1 [Glycine, (1-methylethylidene)bis[bis[thio-2,6-bis(1,1-dimethylthyl)-4,1-phenylene]]ester, dihydrochloride] | < 4.30
8 | COc1c(C(C)(C)C)cc(SCc2ccc(C(F)(F)F)cc2)cc1C(C)(C)C [2,6-di-tert-butyl-1-methoxy-4-thio(4′-trifluoromethyl)benzyl)benzene] | < 4.30
9 | CC(C)(Sc1cc(C(C)(C)C)c(O)c(C(C)(C)C)c1)Sc1cc(C(C)(C)C)c(OCC(O)C2CO2)c(C(C)(C)C)c1 (stereo not drawn) [Oxiranemethanol, α-[[4-[[1-[[3,5-bis(1,1-dimethylethyl)-4-hydroxyphenyl]thio]-1-methylethyl]thio]-2,6-bis(1,1-dimethylethyl)phenoxy]methyl]-] | 4.35
10 | CC(C)(C)c1cc(SCc2ccc(F)cc2)cc(C(C)(C)C)c1O [2,6-di-tert-butyl-4-thio(4′-fluorobenzyl)phenol] | 4.46
11 | Pentanedioic acid, (1-methylethylidene)bis(thio{2,6-bis(1,1-dimethylethyl)-4,1-phenylene)]ester | < 4.30
12 | CC(C)(Sc1cc(C(C)(C)C)c(O)c(C(C)(C)C)c1)Sc1cc(C(C)(C)C)c(OCCCCN)c(C(C)(C)C)c1 [Phenol, 4-[[1-[[4-(4-aminobutoxy)-3,5-bis(1,1-dimethylethyl)phenyl]thio]-1-methylethyl]thio]2,6-bis(1,1-dimethylethyl)-] | 5.05
13 | CC1(C)OC2OC(COc3c(C(C)(C)C)cc(SC(C)(C)Sc4cc(C(C)(C)C)c(O)c(C(C)(C)C)c4)cc3C(C)(C)C)C3OC(C)(C)OC3C2O1 [α-D-Galactopyranose, 6-O-[4-[[1-[[3,5-bis(1,1-dimethylethyl)-4-hydroxyphenyl]thio]-1-methylethyl]thio]-2,6-bis(1,1-dimethylethyl)phenyl]-1,2:3,4-bis-O-(1-methylethylidene)] | 4.35

Same assay, conditions: at 50 μM

Row | Compound | VCAM-1 inhibition at [μM]
14 | CC(C)(C)c1cc(SCCCS(=O)(=O)O)cc(C(C)(C)C)c1O [2,6-di-tert-butyl-4-thio(3′-propanesulfonic acid)phenol] | 25% at 50
